Data reported in ChEMBL document CHEMBL3046386, “Cyclophosphamide analogues: synthesis, spectroscopic study, and antitumor activity of diazaphosphorinanes” (Med Chem Res, 2011).

Key:
[1] = Distribution coefficient, log D of the compound; conditions: octanol/water
[2] = Lipophilicity, log P of the compound; conditions: octanol/water
K562 = experiment: Antiproliferative activity against Homo sapiens (human) K562 cells after 48 hr by MTT assay; format: functional, cell-based; conditions: K562, 48 h

SMILES | logD [1] | logP [2] | IC50 (K562)
Cc1ccc(OP2(=O)NCC(C)(C)CN2)cc1 | 0.73 | 1.55 | 
CC1(C)CNP(=O)(Nc2ccc(S(N)(=O)=O)cc2)NC1 | -1 | -0.78 | 58.2 µM
CC1(C)CNP(=O)(NC(=O)c2ccccc2[N+](=O)[O-])NC1 | -0.04 | 0.34 | 6.87 µM
CC1(C)CNP(=O)(NC(=O)c2cccc([N+](=O)[O-])c2)NC1 | -0.03 | 0.34 | 5.08 µM
CC1(C)CNP(=O)(NC(=O)c2ccc([N+](=O)[O-])cc2)NC1 | -0.03 | 0.34 | 6.49 µM
O=P1(N(CCCl)CCCl)NCCCO1 (stereo unspecified) [CYCLOPHOSPHAMIDE ANHYDROUS] | 0.05 | 1.12 | 
